Experiments:
AAC(6′)-Ii [1] = biological target: T1, AAC(6′)-Ii (Enterococcus faecium, UniProt Q47764); experiment: AAC6′-Ii inhibition assay (DTDP-coupled, varying AcCoA); format: biochemical; design: made in house; host or cells: Escherichia coli BL21; details: for Vm: maximal velocity from the fit of the inhibition assay; for enhanced inhibition of AAC(6′)-Ii as compared to lysine-CoA conjugates (3a and 3b): relative to 3a and 3b; for type of inhibition (in words): versus acetylCoA
Procedure: AAC(6′)-Ii was obtained using a previously described protocol (Wright and Ladak, 1997). The Escherichia coli strain BL21 was transformed with a pET22b expression plasmid containing the AAC(6′)-Ii gene. The bacteria were grown in Luria-Bertani (LB) media at 37° C. containing ampicillin (100 μg/mL). Expression of the protein was induced using isopropyl-β-D-thiogalactoside (IPTG). After harvesting the cells by centrifugation and washing them with a 0.85% NaCl solution, the cells were lysed by sonication. AAC(6′)-Ii was purified in a two-step process: firstly, the lysate was ran through a Q-Sepharose ion exchange column (GE Healthsciences), and secondly the AAC(6′)-Ii containing fractions were further purified using a Gentamicin agarose affinity column (BioRad).
Enzyme activity was monitored using a procedure described elsewhere (Williams and Northrop, 1978). Thus, reaction mixtures in HEPES (1 mM, pH=7.5) and containing 4,4′-dithiodipyridine (DTDP, 2 mM), aminoglycoside (200 μM), and AAC(6′)-Ii (25 μg/mL) were prepared with varying concentrations of AcCoA. Reaction volumes were typically 400 μl. The assay mixtures were preincubated for 1 min at 37° C. The initial rates V were fit to Equation S1, where [S] is the concentration of AcCoA, Km is the Michaelis-Menten constant, and Vm is the maximal velocity: [S]/V=[S]/Vm+Km/Vm (S1)
The initial reaction velocity (steady-state) in the presence of inhibitors was measured as described above. The initial rates obtained at various concentrations of inhibitor were fit to Equation S2 for competitive inhibition, to Equation S3 for […] inhibition, or to Equation S4 for uncompetitive inhibition, where [I] is the concentration of inhibitor and Ki is the inhibition constant: [S]/V=[S]/Vm+(1+[I]/Ki)Km/Vm (S2) [S]/V=(1+[I]/Ki)[S]/Vm+Km/Vm (S3) [S]/V=(1+[I]/Ki)[S]/Vm+(1+[I]/Ki)Km/Vm (S4)

AAC(6′)-Iy = biological target: T2, AAC(6′)-Iy (Salmonella enteritidis, UniProt Q9R381); experiment: Inhibition assay of AAC(6′)-Iy; format: biochemical, Salmonella enterica; details: for Ki: Table 2
T2 sequence (Q9R381 1-145): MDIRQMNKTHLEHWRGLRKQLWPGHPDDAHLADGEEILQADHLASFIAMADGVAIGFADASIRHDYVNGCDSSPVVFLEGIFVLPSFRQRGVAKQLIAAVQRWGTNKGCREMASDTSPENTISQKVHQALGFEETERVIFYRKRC

AAC(6′)-Ii [2] = biological target: T1, AAC(6′)-Ii; details: read-out: Michaelis-Menten constant (Km); acetyl CoA as substrate of AAC(6′)-Ii; cited from earlier work
[3] = Ki (μM), Table 1, inhibition of AAC(6′)-Ii, varying AcCoA
[4] = inhibition constant (Ki), running text b80

T1 sequence (Q47764 1-182): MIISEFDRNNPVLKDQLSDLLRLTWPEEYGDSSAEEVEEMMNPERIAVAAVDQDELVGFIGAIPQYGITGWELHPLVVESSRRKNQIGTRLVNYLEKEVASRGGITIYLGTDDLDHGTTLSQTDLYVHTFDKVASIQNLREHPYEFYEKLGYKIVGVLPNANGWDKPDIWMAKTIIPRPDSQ

Compound	Ki values (in words) (AAC(6′)-Ii [1])	Ki (AAC(6′)-Ii [1]; AAC(6′)-Ii [Ki, (μM)], Table 2) [µM]	Ki (AAC(6′)-Ii [1]; [3]) [µM]	Vm (AAC(6′)-Ii [1]; Table 1) [µM/s]	enhanced inhibition of AAC(6′)-Ii as compared to lysine-CoA conjugates (3a and 3b) (AAC(6′)-Ii [1]) [fold]	type of inhibition (in words) (AAC(6′)-Ii [1])	type of inhibition (in words) (AAC(6′)-Ii [1]; listed as 10)	Ki values (in words) (AAC(6′)-Iy)	Ki (AAC(6′)-Iy) [µM]	inhibition of AAC(6′)-Ii (in words) (AAC(6′)-Ii [1])	Ki (AAC(6′)-Ii [1]; [4]) [µM]	Km (AAC(6′)-Ii [2]) [µM]
CC(C)(COP(=O)(O)OP(=O)(O)OCC1OC(n2cnc3c(N)ncnc32)C(O)C1OP(=O)(O)O)C(O)C(=O)NCCC(=O)NCCSCC(=O)NCC1OC(OC2C(N)CC(N)C(O)C2O)C(N)C(O)C1O (centres unmarked) [Compound 10a]	submicromolar range	0.076 ± 0.025	0.076 ± 0.025	0.15 ± 0.01	500	potent competitive inhibitors	competitive inhibition versus acetylCoA	near submicromolar	2.76 ± 0.4			
CC(C)(COP(=O)(O)OP(=O)(O)OCC1OC(n2cnc3c(N)ncnc32)C(O)C1OP(=O)(O)O)C(O)C(=O)NCCC(=O)NCCSCCCC(=O)NCC1OC(OC2C(N)CC(N)C(O)C2O)C(N)C(O)C1O (centres unmarked) [Compound 10c]	submicromolar range	0.161 ± 0.098				potent competitive inhibitors		near submicromolar	2.1 ± 0.3			
COC(=O)C(CCCCNC(=O)CSCCNC(=O)CCNC(=O)C(O)C(C)(C)COP(=O)(O)OP(=O)(O)OCC1OC(n2cnc3c(N)ncnc32)C(O)C1OP(=O)(O)O)NC(C)=O (centres unmarked) [Compound 3a]			≥ 130			moderate competitive inhibition				moderate inhibition	130	
CC(C)(COP(=O)(O)OP(=O)(O)OCC1OC(n2cnc3c(N)ncnc32)C(O)C1OP(=O)(O)O)C(O)C(=O)NCCC(=O)NCCSCCC(=O)NCC1OC(OC2C(N)CC(N)C(O)C2O)C(N)C(O)C1O (centres unmarked) [Compound 10b]	submicromolar range	0.043 ± 0.023				potent competitive inhibitors		near submicromolar	1.89 ± 0.3	highest inhibition among all the inhibitors		
CC(C)(COP(=O)(O)OP(=O)(O)OCC1OC(n2cnc3c(N)ncnc32)C(O)C1OP(=O)(O)O)C(O)C(=O)NCCC(=O)NCCSCCCCC(=O)NCC1OC(OC2C(N)CC(N)C(O)C2O)C(N)C(O)C1O (centres unmarked) [Compound 10d]		7.99 ± 2.66						near submicromolar	1.9 ± 0.3			
CC(=O)SCCNC(=O)CCNC(=O)[C@H](O)C(C)(C)COP(=O)(O)OP(=O)(O)OC[C@H]1O[C@@H](n2cnc3c(N)ncnc32)[C@H](O)[C@@H]1OP(=O)(O)O [acetyl CoA, Acetyl Coenzyme A]												23.5
COC(=O)C(CCCCNC(=O)CCSCCNC(=O)CCNC(=O)C(O)C(C)(C)COP(=O)(O)OP(=O)(O)OCC1OC(n2cnc3c(N)ncnc32)C(O)C1OP(=O)(O)O)NC(C)=O (centres unmarked) [Compound 3b]			≥ 30			moderate competitive inhibition				moderate inhibition	30	
CC(C)(COP(=O)(O)OP(=O)(O)OCC1OC(n2cnc3c(N)ncnc32)C(O)C1OP(=O)(O)O)C(O)C(=O)NCCC(=O)NCCSCC(=O)NCC1OC(OC2C(N)CC(N)C(O)C2OC2OC(CO)C(O)C2O)C(N)C(O)C1O (centres unmarked) [Compound 12]		0.119 ± 0.014	0.119 ± 0.014	0.14 ± 0.04	500	competitive inhibition versus acetylCoA			1.1 ± 0.1			
